Laboratory results published in patent US20230240300A1, “NANO[…] MATERIAL BASED ON NIOBIUM OLIGOMERS, OBTENTION METHOD, AND USE” (UNIVERSIDADE FEDERAL DE MINAS GERAIS, priority 2020, published 2023).

Test system: coronavirus
Assay: viral load reduction study, compound mixed with virus suspension
Format: cell-based
Conditions: eight parts compound mixed with one part virus suspension, room temperature, 10 min contact; FIG. 4(A)
Procedure: For viral load reduction studies directly employing the coronavirus, eight parts of the compound were adapted to room temperature (RT) and mixed with one part of the virus suspension. Immediately after incubation for defined periods at room temperature, the mixture was diluted 1:10. After four days of incubation at 37° C. in a CO2 incubator, cells were microscopically examined for virus-specific cytopathogenic effects after 10 min of virus contact with the niobium compound. All tests were performed in triplicate.
Initially, exploratory studies were carried out with different proportions of the compounds and with the materials separately. […] In fact, the results of samples S10 (representing a solution containing pure CTAB dissolved in water) and S12 (sample containing the same content of CTAB reacted with niobium), clearly indicate the potentiated effect of the Nb-CTAB species.

For `CCCCCCCCCCCCCCCC[N+](C)(C)C.[Br-]` [CTAB, hexadecyltrimethylammonium bromide], which viral load reduction is on record?
Its viral load reduction is “approximately 30%”.
